{"source": "paper PMC8665847", "about": "(European Journal of Medicinal Chemistry, 2021)", "key": {"SARS-CoV-2 3CL^pro": {"target": "SARS-CoV-2 3CL^pro (Severe acute respiratory syndrome coronavirus 2, UniProt P0DTD1)", "experiment": "biochemical", "assay_type": "biochemical", "settings": "for time dependence of the level of inhibition: incubation time 0-60 min, inhibitor close to its IC50 concentration (Fig. S4)"}, "3CL^pro": {"target": "3CL^pro (Severe acute respiratory syndrome coronavirus 2, UniProt P0DTD1)", "experiment": "LC-MS detection of 3CLpro-inhibitor covalent adducts", "assay_type": "binding, SARS-CoV-2"}, "SARS-CoV 3CL^pro": {"test_system": "SARS-CoV 3CL^pro", "settings": "cited from earlier work"}}}
{"smiles": "C=CS(=O)(=O)N(c1ccc(C(C)(C)C)cc1)[C@@H](C(=O)N[C@@H](C)c1ccccc1)c1cccnc1", "note": "(mixture of isomers) [14g, (S)- and (R)-2-(N-(4-(tert-butyl)phenyl)vinylsulfonamido)-N-((S)-1-phenylethyl)-2-(pyridin-3-yl)acetamide]", "values": [{"measurement": "inhibition at 50 µM", "setting": "SARS-CoV-2 3CL^pro", "result": "> 95", "unit": "%"}, {"measurement": "times more potent than diastereomer 14h", "setting": "SARS-CoV-2 3CL^pro; ratio of IC50", "result": "approximately 20 times"}]}
{"smiles": "C=CS(=O)(=O)N(c1ccc(C(C)(C)C)cc1)[C@H](C(=O)N[C@@H](C)c1ccccc1)c1cccnc1", "note": "(mixture of isomers) [14h, (S)- and (R)-2-(N-(4-(tert-butyl)phenyl)vinylsulfonamido)-N-((S)-1-phenylethyl)-2-(pyridin-3-yl)acetamide]", "values": [{"measurement": "inhibition at 50 µM", "setting": "SARS-CoV-2 3CL^pro", "result": "> 95", "unit": "%"}]}
{"smiles": "C=CC(=O)N(c1ccc(C(C)(C)C)cc1)C(C(=O)NC1CCCCC1)c1cccnc1", "note": "(stereo not drawn) [6a, N-(4-(tert-butyl)phenyl)-N-(2-(cyclohexylamino)-2-oxo-1-(pyridin-3-yl)ethyl) acrylamide]", "values": [{"measurement": "IC50", "setting": "SARS-CoV-2 3CL^pro", "result": "11.1 ± 1.5", "unit": "µM"}]}
{"smiles": "C=CS(=O)(=O)N(c1ccc(C(C)(C)C)cc1)C(C(=O)NC1CCCCC1)c1cccnc1", "note": "(stereo not drawn) [14a, 2-(N-(4-(tert-butyl)phenyl)vinylsulfonamido)-N-cyclohexyl-2-(pyridin-3-yl)acetamide]", "values": [{"measurement": "IC50", "setting": "SARS-CoV-2 3CL^pro", "result": 0.5, "unit": "µM"}, {"measurement": "time dependence of the level of inhibition", "setting": "SARS-CoV-2 3CL^pro", "result": "increased with incubation time"}, {"measurement": "presence of 3CLpro-inhibitor adduct by LC-MS", "setting": "3CL^pro", "result": "confirmed"}]}
{"smiles": "CC(C)(C)c1ccc(N(C(=O)CCl)C(C(=O)NC2CCCCC2)c2cccnc2)cc1", "note": "(stereo not drawn) [16a, N-(4-(tert-butyl)phenyl)-2-chloro-N-(2-(cyclohexylamino)-2-oxo-1-(pyridin-3-yl)ethyl) acetamide]", "values": [{"measurement": "time dependence of the level of inhibition", "setting": "SARS-CoV-2 3CL^pro", "result": "increased with incubation time"}, {"measurement": "presence of 3CLpro-inhibitor adduct by LC-MS", "setting": "3CL^pro", "result": "confirmed"}]}
{"smiles": "CC(C)(C)c1ccc(N(C(=O)C#CCO)C(C(=O)NC2CCCCC2)c2cccnc2)cc1", "note": "(stereo not drawn) [23a, N-(4-(tert-butyl)phenyl)-N-(2-(cyclohexylamino)-2-oxo-1-(pyridin-3-yl)ethyl)-4-hydroxybut-2-ynamide]", "values": [{"measurement": "improvement in potency over alkynylamide analogue 13a", "setting": "SARS-CoV-2 3CL^pro; ratio of IC50", "result": "~10", "unit": "fold"}]}
{"smiles": "CC(C)(C)c1ccc(N(C(=O)c2c[nH]cn2)C(C(=O)NC2CCCCC2)c2cccnc2)cc1", "note": "(stereo not drawn) [X77, N-(4-(tert-butyl)phenyl)-N-(2-(cyclohexylamino)-2-oxo-1-(pyridin-3-yl)ethyl)-1H-imidazole-5-carboxamide]", "values": [{"measurement": "IC50", "setting": "SARS-CoV 3CL^pro", "result": 3.4, "unit": "µM"}]}
